Source: US20250388565A1, “ESTROGEN RECEPTOR ALPHA DEGRADERS AND METHODS OF USE THEREOF” (Relay Therapeutics, Inc., priority 2022, published 2025)

target: T1, ERα protein (HiBiT-tagged) in ESR1_HiBiT KI MCF7 cells (Homo sapiens, UniProt P03372); experiment: Nano Glo HiBiT Lytic Degradation Assay; type: cell-based; settings: 6 hours with compound, 14-point dose response 1:3, bell-shape curve fit, half-maximal effect of first Hill model, read-out: MCF7 ESR1 HiBiT - (DC50)
T1 sequence (P03372 1-595): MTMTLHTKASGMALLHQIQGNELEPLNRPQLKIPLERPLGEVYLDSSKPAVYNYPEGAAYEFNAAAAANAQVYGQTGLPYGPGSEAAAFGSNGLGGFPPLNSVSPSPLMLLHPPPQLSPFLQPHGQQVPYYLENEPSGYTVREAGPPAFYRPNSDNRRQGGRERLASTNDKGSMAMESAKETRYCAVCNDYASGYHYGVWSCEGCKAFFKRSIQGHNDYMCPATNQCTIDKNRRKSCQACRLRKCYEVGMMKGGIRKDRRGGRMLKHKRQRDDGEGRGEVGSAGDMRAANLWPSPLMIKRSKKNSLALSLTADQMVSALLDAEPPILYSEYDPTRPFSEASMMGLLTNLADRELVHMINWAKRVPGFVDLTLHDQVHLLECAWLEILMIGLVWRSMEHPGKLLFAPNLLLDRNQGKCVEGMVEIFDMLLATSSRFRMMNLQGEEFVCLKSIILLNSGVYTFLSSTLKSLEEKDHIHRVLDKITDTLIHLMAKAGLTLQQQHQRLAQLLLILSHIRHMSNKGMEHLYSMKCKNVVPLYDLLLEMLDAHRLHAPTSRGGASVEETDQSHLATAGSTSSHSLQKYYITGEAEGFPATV
Summary of the method: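 Lytic Nano-Glo HiBiT luminescence quantified ERα remaining after a 6 h, 37° C compound exposure of MCF7 cells carrying endogenous HiBiT-tagged ESR1. Dosing used 14 threefold dilutions from a 10 mM DMSO stock (0.1% DMSO final), run in duplicate. Signals were corrected for cell-free background and expressed relative to DMSO, and DC50 came from a bell-shaped curve fit (first Hill model half-maximum).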

Row | DC50 [nM] | SMILES
1 | ≥ 10000 | O=C1CCC(N2Cc3cc(N4CCN(CC5CCN(c6c(F)cc([C@H]7c8ccc(O)cc8CC[C@H]7C7CCCCC7)cc6F)CC5)CC4)ccc3C2=O)C(=O)N1 (stereo in doubt) [Compound I-160, (R)-3-(5-(4-((1-(4-((1S,2S)-2-cyclohexyl-6-hydroxy-1,2,3,4-tetrahydronaphthalen-1-yl)-2,6-difluorophenyl)piperidin-4-yl)methyl)piperazin-1-yl)-1-oxoisoindolin-2-yl)piperidine-2,6-dione]
2 | 3 | O=C1CC[C@H](N2Cc3cc(N4CCN(CC5CCN(c6ccc([C@@H]7c8ccc(B(O)O)cc8CC[C@@H]7c7ccccc7)cc6)CC5)CC4)ccc3C2=O)C(=O)N1 [Compound I-45, ((5R,6S)-5-(4-(4-((4-(2-((S)-2,6-dioxopiperidin-3-yl)-1-oxoisoindolin-5-yl)piperazin-1-yl)methyl)piperidin-1-yl)phenyl)-6-phenyl-5,6,7,8-tetrahydronaphthalen-2-yl)boronic acid]
3 | 2 | Cc1cc([C@H]2c3ccc(O)cc3CC[C@H]2c2ccccc2)ccc1N1CCC(CN2CCN(c3ccc4c(c3)CN([C@H]3CCC(=O)NC3=O)C4=O)CC2)CC1 (single isomer, unassigned) [II-43]
4 | 18 | O=C1CC[C@H](N2Cc3cc(N4CCN(C[C@H]5CCN(c6ccc([C@@H]7c8ccc(O)cc8CC[C@@H]7c7ccccc7)cc6)C5)CC4)ccc3C2=O)C(=O)N1 (single isomer, unassigned) [II-13]
5 | 2 | C[C@@H]1C[C@H](c2ccccc2)[C@H](c2ccc(N3CCC(CN4CCN(c5ccc6c(c5)CN([C@H]5CCC(=O)NC5=O)C6=O)CC4)CC3)cc2)c2ccc(O)cc21 (single isomer, unassigned) [Compound I-419]
6 | 9 | O=C1CCC(N2Cc3cc(N4CCN(CC5CCN(c6ccc([C@@H]7c8ccc(O)cc8CC[C@@H]7C7CCCC7)cc6)CC5)CC4)ccc3C2=O)C(=O)N1 (single isomer, unassigned) [Compound I-52]
7 | 5 | C[C@H]1CN(CC2CCN(c3ccc([C@@H]4c5ccc(O)cc5CC[C@@H]4c4ccccc4)cc3)CC2)CCN1c1ccc2c(c1)CN([C@H]1CCC(=O)NC1=O)C2=O (single isomer, unassigned) [II-10]
8 | ≥ 10000 | O=C1CC[C@H](N2Cc3cc(N4CCN(CC5CCN(c6ccc([C@@H]7c8ccc(C(=O)O)cc8CC[C@@H]7c7ccccc7)cc6)CC5)CC4)ccc3C2=O)C(=O)N1 (single isomer, unassigned) [Compound I-2]

Continued, compound first:

Row | SMILES | DC50 [nM]
9 | O=C1CC[C@H](N2Cc3cc(N4CCN(CC5CCN(c6ccc([C@@H]7c8ccc(O)cc8C(F)(F)C[C@@H]7c7ccccc7)c(F)c6)CC5)CC4)ccc3C2=O)C(=O)N1 [Compound I-199, (S)-3-(5-(4-((1-(4-((1S,2S)-4,4-difluoro-6-hydroxy-2-phenyl-1,2,3,4-tetrahydronaphthalen-1-yl)-3-fluorophenyl)piperidin-4-yl)methyl)piperazin-1-yl)-1-oxoisoindolin-2-yl)piperidine-2,6-dione] | 0.33
10 | O=C1CC[C@H](N2Cc3cc(N4CCN(CC5CCN(c6ccc([C@@H]7c8ccc(O)cc8CC[C@@H]7C7CCCCC7)nc6)CC5)CC4)ccc3C2=O)C(=O)N1 [Compound I-149, (S)-3-(5-(4-((1-(6-((1S,2R)-2-cyclohexyl-6-hydroxy-1,2,3,4-tetrahydronaphthalen-1-yl)pyridin-3-yl)piperidin-4-yl)methyl)piperazin-1-yl)-1-oxoisoindolin-2-yl)piperidine-2,6-dione] | 0.82
11 | O=C1CC[C@H](c2ccc(N3CCC4(CCN(CC5CCN(c6ccc([C@@H]7c8ccc(O)cc8CC[C@@H]7c7ccccc7)cc6)CC5)C4)CC3)cc2)C(=O)N1 (single isomer, unassigned) [Compound I-283] | 5
12 | O=C1CC[C@H](N2Cc3cc(N4CCN(CC5CCN(c6c(F)cc([C@@H]7c8ccc(O)cc8CC[C@@H]7c7ccccc7)cc6F)CC5)CC4)ccc3C2=O)C(=O)N1 [II-84] | 0.8
13 | Cn1c(=O)n([C@H]2CCC(=O)NC2=O)c2ccc(N3CCN(CC4CCN(c5ccc([C@@H]6c7ccc(O)cc7CC[C@@H]6c6ccccc6)cc5)CC4)CC3)cc21 (single isomer, unassigned) [Compound I-275] | 0.25
14 | O=C1CCC(n2cc3cc(N4CCN(CC5CCN(c6ccc([C@@H]7c8ccc(O)cc8CO[C@@H]7c7ccccc7)cc6)CC5)CC4)ccc3n2)C(=O)N1 (stereo partly drawn) [Compound I-397, 3-(5-(4-((1-(4-((3S,4R)-7-hydroxy-3-phenylisochroman-4-yl)phenyl)piperidin-4-yl)methyl)piperazin-1-yl)-2H-indazol-2-yl)piperidine-2,6-dione] | 0.61
15 | C[C@@H]1O[C@@H](C2CCCCC2)[C@H](c2ccc(N3CCC(CN4CCN(c5ccc6c(c5)CN([C@H]5CCC(=O)NC5=O)C6=O)CC4)CC3)cc2)c2ccc(O)cc21 (single isomer, unassigned) [Compound I-254] | 41
16 | CC(C1CCN(c2ccc([C@@H]3c4ccc(O)cc4CC[C@@H]3c3ccccc3)cc2)CC1)N1CCN(c2ccc3c(c2)CN([C@@H]2CCC(=O)NC2=O)C3=O)CC1 (single isomer, unassigned) [II-67] | 47
17 | O=C1CC[C@H](N2Cc3cc(N4C[C@@H]5C[C@H]4CN5CC4CCN(c5ccc([C@@H]6c7ccc(O)cc7CC[C@@H]6c6ccccc6)cc5)CC4)ccc3C2=O)C(=O)N1 [II-7] | ≥ 10000
18 | O=C1CC[C@H](N2Cc3cc(N4CCN(CC5CCN(c6ccc([C@@H]7c8ccc(Cl)cc8CC[C@@H]7c7ccccc7)cc6)CC5)CC4)ccc3C2=O)C(=O)N1 [II-60] | ≥ 10000
19 | Cc1cccc([C@@H]2CCc3cc(O)ccc3[C@@H]2c2ccc(N3CCC(CN4CCN(c5ccc6c(c5)CN([C@H]5CCC(=O)NC5=O)C6=O)CC4)CC3)cc2)c1 (single isomer, unassigned) [II-29] | 1.24
20 | O=C1CC[C@H](N2Cc3cc(N4CCN(CC5CCN(c6ccc([C@H]7c8ccc(O)cc8CO[C@H]7c7ccc(O)cc7)cc6)CC5)CC4)ccc3C2=O)C(=O)N1 (single isomer, unassigned) [Compound I-360] | 0.38
21 | O=C1CC[C@H](N2Cc3cc(N4CCN(CC5CCN(c6ccc([C@H]7c8ccc(O)cc8CC[C@H]7c7ccccn7)cc6)CC5)CC4)ccc3C2=O)C(=O)N1 [Compound I-114, (3S)-3-[5-[4-[[1-[4-[(1S,2R)-6-hydroxy-2-(2-pyridyl)tetralin-1-yl]phenyl]-4-piperidyl]methyl]piperazin-1-yl]-1-oxo-isoindolin-2-yl]piperidine-2,6-dione] | ≥ 10000
22 | O=C1CCC(c2ccc3c(c2)CN(C2CCN(CC4CCN(c5ccc([C@H]6c7ccc(O)cc7CC[C@H]6c6ccccc6)cc5)CC4)CC2)CC3)C(=O)N1 (stereo in doubt) [Compound I-185, 3-(2-(1-((1-(4-((1S,2R)-6-hydroxy-2-phenyl-1,2,3,4-tetrahydronaphthalen-1-yl)phenyl)piperidin-4-yl)methyl)piperidin-4-yl)-1,2,3,4-tetrahydroisoquinolin-7-yl)piperidine-2,6-dione] | 737
23 | O=C1CC[C@H](N2Cc3cc(N4CCN(CC5CCN(c6ccc([C@@H]7c8ccc(C(F)(F)F)cc8CC[C@@H]7c7ccccc7)cc6)CC5)CC4)ccc3C2=O)C(=O)N1 [Compound I-46, (S)-3-(1-oxo-5-(4-((1-(4-((1R,2S)-2-phenyl-6-(trifluoromethyl)-1,2,3,4-tetrahydronaphthalen-1-yl)phenyl)piperidin-4-yl)methyl)piperazin-1-yl)isoindolin-2-yl)piperidine-2,6-dione] | ≥ 10000
24 | O=C1CC[C@H](N2Cc3cc(N4CCN(CC5CCN(c6ccc([C@@H]7c8ccc(O)cc8C(F)(F)C[C@@H]7c7ccc(F)cc7F)cc6)CC5)CC4)ccc3C2=O)C(=O)N1 [Compound I-318, (S)-3-(5-(4-((1-(4-((1R,2S)-2-(2,4-difluorophenyl)-4,4-difluoro-6-hydroxy-1,2,3,4-tetrahydronaphthalen-1-yl)phenyl)piperidin-4-yl)methyl)piperazin-1-yl)-1-oxoisoindolin-2-yl)piperidine-2,6-dione] | 0.33
25 | O=C1CCC(c2ccc3c(c2)C[C@H](N2CCN(CC4CCN(c5ccc([C@@H]6c7ccc(O)cc7CC[C@@H]6c6ccccc6)cc5)CC4)CC2)CC3)C(=O)N1 (single isomer, unassigned) [Compound I-423] | ≥ 10000
26 | O=C1CC[C@H](N2Cc3cc(N4CCN(CC5CCN(c6ccc([C@H]7c8ccc(O)cc8CO[C@H]7c7ccc8c(c7)CCC8)cc6)CC5)CC4)ccc3C2=O)C(=O)N1 [Compound I-366, (S)-3-(5-(4-((1-(4-((3R,4S)-3-(2,3-dihydro-1H-inden-5-yl)-7-hydroxyisochroman-4-yl)phenyl)piperidin-4-yl)methyl)piperazin-1-yl)-1-oxoisoindolin-2-yl)piperidine-2,6-dione] | ≥ 10000
27 | O=C1CC[C@H](N2Cc3cc(N4CCN(CC5CCN(c6ccc([C@@H]7c8ccc(O)cc8CO[C@@H]7c7ccc(C(F)(F)F)cc7)cc6)CC5)CC4)ccc3C2=O)C(=O)N1 [Compound I-349] | 0.39
